Patent US10561681B2, “Antimetastatic 2H-selenopheno[3,2-h]chromenes, synthesis thereof, and methods of using same agents” (Latvian Institute of Organic Synthesis, priority 2016, dated 2020)
“And” between values parts separate entries of the source, which are not always exact repeats. Identical values can stand only once. Like-named read-outs stand apart in the source and are kept apart here. Marks after values point to notes of the source that are not given here.

Key:
[1] = system: malignant tumor cells; assay: In vitro cytotoxicity on monolayer tumor cell lines (panel, summary in words); format: cell-based; details: summary of Table 1
Experimental: Anticancer activity of selenopheno[h]chromenes was tested in vitro using cytotoxicity assay. Thus, monolayer tumor cell lines MDA-MB-435s (human melanoma), MCF-7 (human breast adenocarcinoma, estrogen-positive), MES-SA (human uterus sarcoma), HT-1080 (human fibrosarcoma), A549 (human lung carcinoma), SH-SY5Y (human neuroblastoma), CCL-8 (mouse sarcoma), MG-22A (mouse hepatoma), and HepG2 (human hepatocellular carcinoma) were cultured in standard medium DMEM (Dulbecco's modified Eagle's medium) (“Sigma”) supplemented with 10% fetal bovine serum (“Sigma”). About 2-9·10^4 cells/mL (depending on line nature) were placed in 96-well plates immediately after compounds were added to the wells. Untreated cells were used as a control. The plates were incubated for 72 h, 37° C., 5% CO2. The number of surviving cells was determined using 3-(4,5-dimethylthiazol-2-yl)-2,5-diphenyltetrazolinium bromide (MTT). MTT-test: after incubating culture medium was removed and 200 μL fresh medium with 10 mM HEPES was added in each well of the plate, than 20 μL MTT (2 mg/mL in HBSS) was added. After incubation (3 hr, 37° C., 5% CO2), the medium with MTT was removed and 200 μL DMSO were added at once to each sample. The samples were tested at 540 nm on Anthos HT II photometer.

[2] = Basal cytotoxicity test, Neutral Red Uptake (NRU) assay; format: cell-based; details: for LD50 at 24 h: mouse, po, acute oral LD50 calculated from 3T3 NRU IC50 by regression formula, read-out: Basal cytotoxicity Estimated* LD50; for IC50 at 24 h: normal mouse embryo fibroblasts, read-out: Cytotoxicity IC50, 3T3
Experimental: In parallel, the borderline concentration relevant to the highest tolerated dose has been determined for each compound using the NIH 3T3 (mouse embryo fibroblasts) cell line and the basal cytotoxicity obtained has then been used to predict the starting doses for in vivo acute oral LD50 values in rodents.
the Neutral Red Uptake (NRU) assay was performed according to the standard protocol of Stokes modified by the NICEATM-ECVAM validation study. The NRU cytotoxicity assay procedure is based on the ability of viable cells to incorporate and bind Neutral Red, a supravitally dye. Balb/c 3T3 (Mouse Swiss Albino embryo fibroblast) cells (9000 cells/well) were placed into 96-well plates for 24 h in Dulbecco's modified Eagle's (DMEM) medium containing 5% fetal bovine serum. The cells were then exposed to the test compounds over a range of […] concentrations (1000, 316, 100, 31, 10, 3, 1 μg/ml) for 24 h. Untreated cells were used as a control. After 24 h, the medium was removed from all plates. Then, 250 μL of Neutral Red solution were added (0.05 mg/mL NR in DMEM 24 h pre-incubated at 37° C. and then filtered before use through 0.22-μm syringe filter). Plates were incubated for 3 h and then cells were washed three times with PBS. The dye within viable cells was released by extraction with a mixture of acetic acid, ethanol and water (1:50:49). Absorbance of Neutral Red was measured using a spectrophotometer multiplate reader (TECAN, Infinite M1000) at 540 nm. The percentage of living cells was calculated using the formula: OD (treated cells)*100/OD (control cells). The IC50 values were calculated using the programme Graph Pad Prism® 3.0.
Data from the in vitro tests were used for estimating the starting dose for acute oral systemic toxicity tests in rodents. […] The value is recalculated to mg/kg and compounds are evaluated in accordance with four toxicity categories: category 1: LD50≤5 mg/kg (highly toxic); category 2: 5<LD50≤50 mg/kg (moderately toxic); category 3: 50<LD50≤300 mg/kg (slightly toxic); category 4: 300<LD50≤2 000 mg/kg (practically non-toxic).

[3] = system: SH-SY5Y (human neuroblastoma); assay: In vitro cytotoxicity, MTT test; format: cell-based; details: Homo sapiens, SH-SY5Y, 72 h, read-out: Cytotoxicity IC50, SHSY5Y
Experimental: (§1) Anticancer activity of selenopheno[h]chromenes was tested in vitro using cytotoxicity assay. […] About 2-9·10^4 cells/mL (depending on line nature) were placed in 96-well plates immediately after compounds were added to the wells. Untreated cells were used as a control. The plates were incubated for 72 h, 37° C., 5% CO2. The number of surviving cells was determined using 3-(4,5-dimethylthiazol-2-yl)-2,5-diphenyltetrazolinium bromide (MTT). MTT-test: after incubating culture medium was removed and 200 μL fresh medium with 10 mM HEPES was added in each well of the plate, than 20 μL MTT (2 mg/mL in HBSS) was added. After incubation (3 hr, 37° C., 5% CO2), the medium with MTT was removed and 200 μL DMSO were added at once to each sample. The samples were tested at 540 nm on Anthos HT II photometer.

[4] = system: MDA-MB-435s (human melanoma); assay: In vitro cytotoxicity, MTT test; format: cell-based; details: 72 h, read-out: Cytotoxicity IC50, MDA-MB-435s
Experimental: as §1

[5] = system: HT-1080 (human fibrosarcoma); assay: In vitro cytotoxicity, MTT test; format: cell-based; details: read-out: Cytotoxicity IC50, HT-1080
Experimental: as §1

[6] = system: CCL-8 (mouse sarcoma); assay: In vitro cytotoxicity, MTT test; format: cell-based; details: 72 h, read-out: Cytotoxicity IC50, CCL-8
Experimental: as §1

[7] = system: HepG2 (human hepatocellular carcinoma); assay: In vitro cytotoxicity, MTT test; format: cell-based; details: read-out: Cytotoxicity IC50, HepG2
Experimental: as §1

[8] = system: A549 (human lung carcinoma); assay: In vitro cytotoxicity, MTT test; format: cell-based; details: Homo sapiens, A549, 72 h, read-out: Cytotoxicity IC50, A549
Experimental: as §1

[9] = system: MES-SA (human uterus sarcoma); assay: In vitro cytotoxicity, MTT test; format: cell-based; details: 72 h, read-out: Cytotoxicity IC50, MES-SA
Experimental: as §1

[10] = system: MCF-7 (human breast adenocarcinoma, estrogen-positive); assay: In vitro cytotoxicity, MTT test; format: cell-based; details: read-out: Cytotoxicity IC50, MCF-7
Experimental: as §1

[11] = system: MG-22A (mouse hepatoma); assay: In vitro cytotoxicity, MTT test; format: cell-based; details: 72 h, read-out: Cytotoxicity IC50, MG-22A
Experimental: as §1

[12] = system: 4T1 carcinoma cells; assay: 4T1 model of lung metastasis (tail vein) in Balb/c mice; format: in vivo, mouse; details: for Spleen weight increase: 4T1 i.v., control with tumor +147%; for % of the total area occupied by metastases, % (control = 100) / % of the total area occupied by metastases, Mean ± SD: s.c., days 1, 4, 7, 9, 11, 14
Experimental: Compounds were administered s.c. at 1, 4, 7, 9, 11 and 14th days. 4T1 cells (10,000/0.1 ml PBS) were injected i.v. into syngeneic mice. The metastasis at day 16 are shown for each mouse, and averages are provided for illustration.
Balb/c mice were injected with 100,000 4T1 […] cancer cells into the tail vein and treatment started 24 hr later with subcutaneous (s.c.), intraperitoneal (i.p.) injections or oral administration (p.o.) of compounds according to the following scheme: 1, 4, 7, 9, 11 and 14th days in dose 20 or 40 mg/kg. Compounds were dissolved in DMSO and the solution were diluted by water (DMSO final concentration <1%). Mice in the control group were similarly given doses of 0.1 mL of water with DMSO. Twenty-one days later, all mice were anesthetized with ketamine/xylazine and euthanized, the mice were sacrificed spleens were excised from the mice and weighed. In each experiment, mice were weighed twice weekly.
(Lewis et al, Cancer Res, 2005, 65) Pulmonary metastases were enumerated by intra-tracheal injection of India ink (15% India Ink, 85% water, 3 drops NH4OH/100 ml). India ink injected lungs were washed in Feket's solution (300 ml 70% EtOH, 30 ml 37% formaldehyde, 5 ml glacial acetic acid) and then placed fresh Feket's solution overnight. […] White tumor nodules against a black lung background were measured.

| SMILES | Cytotoxicity on cancer cell lines [1] | LD50 at 24 h [2] | IC50 at 24 h [2] [µM] | IC50 [3] [µM] | IC50 [4] [µM] | IC50 ([5]; HT-1080, 72 h) [µM] | IC50 [6] [µM] | IC50 ([7]; HepG2, 72 h) [µM] | IC50 [8] [µM] | IC50 [9] [µM] | IC50 ([10]; MCF7, 72 h) [µM] | IC50 ([3]; MTT) [µM] | IC50 ([4]; MTT) [µM] | IC50 ([5]; HT-1080, MTT, 72 h) [µM] | IC50 ([6]; MTT) [µM] | IC50 ([7]; HepG2, MTT, 72 h) [µM] | IC50 ([8]; MTT, 72 h) [µM] | IC50 ([9]; MTT) [µM] | IC50 ([10]; MCF7, MTT, 72 h) [µM] | IC50 ([11]; MTT) [µM] | also measured |
| --- | --- | --- | --- | --- | --- | --- | --- | --- | --- | --- | --- | --- | --- | --- | --- | --- | --- | --- | --- | --- | --- |
| Cl.O=C(O)c1cc2ccc3c(Br)c(CN4CCOCC4)[se]c3c2oc1=O [Compound I-14, 7-Bromo-2-oxo-8-(morpholin-1-ylmethyl)-2H-selenopheno[3,2-h]chromene-3-carboxylic acid hydrochloride] | remained cytotoxicity on cancer cell lines | 1320 mg/kg and 2600 µmol/kg | 43 ± 2 | 35 ± 9 | 156 ± 9 | 100 ± 6 | 79 ± 9 | 106 ± 9 | 51 ± 8 | 65 ± 6 | 95 ± 9 |  |  |  |  |  |  |  |  |  | IC50 [11]: 59 ± 2 µM |
| CN1CCN(Cc2[se]c3c(ccc4cc(C(=O)O)c(=O)oc43)c2Br)CC1.Cl [Compound I-15, 7-Bromo-8-/(4-methylpiperazin-1-yl/methyl)-2-oxo-2H-selenopheno[3,2-h]chromene-3-carboxylic acid hydrochloride] | low toxic to the cancer cell lines | 3200 µmol/kg and 1670 mg/kg | 192 ± 7 | > 192 | > 122 | > 192 | > 122 | > 192 | > 192 | > 117 | > 192 |  |  |  |  |  |  |  |  |  | Spleen weight increase ([12]; dose 20 mg/kg): 55%; Spleen weight increase ([12]; dose 40 mg/kg): 14%; Prevention of formation of 4T1 carcinoma lung metastasis ([12]; five mice per group): 98%; % of the total area occupied by metastases, % (control = 100) ([12]; 20 mg/kg): 4* %; % of the total area occupied by metastases, Mean ± SD ([12]; 20 mg/kg, control 50 ± 33): 2 ± 2%; % of the total area occupied by metastases, % (control = 100) ([12]; 40 mg/kg): 1* %; % of the total area occupied by metastases, Mean ± SD ([12]; 40 mg/kg): 0 ± 1%; IC50 [11]: 186 ± 7 µM |
| COC1(c2[se]c3c(ccc4cc(C(=O)O[C@H]5CC[C@@]6(C)C(=CC[C@H]7[C@@H]8CC[C@H]([C@H](C)CCCC(C)C)[C@@]8(C)CC[C@@H]76)C5)c(=O)oc43)c2Br)CCCCC1 [Compound I-18, (3S,8S,9S,10R,13R,14S,17R)-10,13-Dimethyl-17-((R)-6-methylheptan-2-yl)-2,3,4,7,8,9,10,11,12,13,14,15,16,17-tetradecahydro-1H-cyclopenta[a]phenanthren-3-yl-7-bromo-8-(1-methoxycyclohexyl)-2-oxo-2H-selenopheno[3,2-h]chromene-3-carboxylate] |  | 3700 µmol/kg and 3190 mg/kg | > 117 |  |  |  |  |  |  |  |  | > 117 | > 117 | > 117 | > 117 | > 117 | > 117 | > 117 | > 117 | > 117 |  |
| COC(=O)c1cc2ccc3c(Br)c(C4(OC)CCCCC4)[se]c3c2oc1=O [Compound I-4, Methyl 7-bromo-8-(1-methoxycyclohexyl)-2-oxo-2H-selenopheno[3,2-h]chromene-3-carboxylate] |  | 1100 µmol/kg and 548 mg/kg | 198 ± 2 |  |  |  |  |  |  |  |  | > 117 | 103 ± 4 | 52 ± 5 | 95 ± 2 | 103 ± 5 | > 201 | 201 ± 5 | 46 ± 14 | 446 ± 6 |  |
| O=C(c1cc2ccc3c(Br)c(C4=CCCCC4)[se]c3c2oc1=O)N1CCCCC1 [Compound I-19, 7-Bromo-8-(cyclohex-1-en-1-yl)-3-(piperidine-1-carbonyl)-2H-selenopheno[3,2-h]chromen-2-one] |  | 1000 µmol/kg and 500 mg/kg | 161 ± 23 |  |  |  |  |  |  |  |  | > 117 | 51 ± 8 | 50 ± 5 | > 193 | 103 ± 15 | 100 ± 3 | 105 ± 4 | 125 ± 8 | 41 ± 2 |  |
| COC1(c2[se]c3c(ccc4cc(C(=O)N5CCOCC5)c(=O)oc43)c2Br)CCCCC1 [Compound I-22, 7-Bromo-8-(1-methoxycyclohexyl)-3-(morpholine-4-carbonyl)-2H-selenopheno[3,2-h]chromen-2-one] |  | 300 µmol/kg and 195 mg/kg | 47 ± 4 |  |  |  |  |  |  |  |  | 98 ± 3 | 43 ± 3 | 38 ± 2 | 39 ± 3 | 47 ± 2 | 43 ± 4 | 41 ± 2 | 18 ± 2 | 37 ± 1 |  |
